The record followed here is patent publication US11530213B2, “Naphthyridinone derivatives and their use in the treatment of arrhythmia” (NOVARTIS AG, priority 2016, dated 2022).

Chain of GIRK1/4 (P48549 whole entry): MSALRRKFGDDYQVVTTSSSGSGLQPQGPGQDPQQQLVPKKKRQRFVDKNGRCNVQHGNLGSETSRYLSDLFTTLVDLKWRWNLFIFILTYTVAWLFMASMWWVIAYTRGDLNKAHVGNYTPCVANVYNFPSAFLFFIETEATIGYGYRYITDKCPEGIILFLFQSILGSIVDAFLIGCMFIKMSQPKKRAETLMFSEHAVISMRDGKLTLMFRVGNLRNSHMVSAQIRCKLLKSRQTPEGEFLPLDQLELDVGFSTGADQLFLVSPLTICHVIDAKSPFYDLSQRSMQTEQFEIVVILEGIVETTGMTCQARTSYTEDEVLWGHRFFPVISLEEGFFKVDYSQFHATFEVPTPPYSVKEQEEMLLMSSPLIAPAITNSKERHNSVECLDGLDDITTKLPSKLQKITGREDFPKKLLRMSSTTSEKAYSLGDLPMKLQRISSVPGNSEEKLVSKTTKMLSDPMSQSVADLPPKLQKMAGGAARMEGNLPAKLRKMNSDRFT
Chain of GIRK1/4 (P48544 whole entry): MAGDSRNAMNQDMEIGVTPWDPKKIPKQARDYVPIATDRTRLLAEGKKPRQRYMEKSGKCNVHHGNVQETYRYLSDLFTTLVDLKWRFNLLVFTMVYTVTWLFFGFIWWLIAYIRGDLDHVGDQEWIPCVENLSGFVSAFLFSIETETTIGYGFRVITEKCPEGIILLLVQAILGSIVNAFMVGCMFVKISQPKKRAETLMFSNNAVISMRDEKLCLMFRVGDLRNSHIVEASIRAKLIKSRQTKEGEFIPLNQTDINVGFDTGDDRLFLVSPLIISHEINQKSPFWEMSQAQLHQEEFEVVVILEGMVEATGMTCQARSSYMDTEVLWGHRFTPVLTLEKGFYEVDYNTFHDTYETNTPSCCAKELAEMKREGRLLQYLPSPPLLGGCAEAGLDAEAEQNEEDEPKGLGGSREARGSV

The target in the test is GIRK1/4 (Homo sapiens (Human), UniProt P48544+P48549). The test can be described thus: GIRK1/4 inhibition, Quattro (IonWorks) population patch clamp, inward potassium current in GIRK 1/4 HEK293 stable cells (test assay No. 1). The format is cell-based. Conditions: percentage of current inhibition normalized to DMSO-only control. Summed up:
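GIRK1/4-expressing HEK293 cells were recorded by IonWorks Quattro perforated patch (amphotericin B), with inward K+ current measured at 1200-1220 ms during a −120 to 40 mV ramp, before and after compound (50-0.1 µM or 0.5-0.01 µM final, quadruplicate). IC50 came from % current inhibition normalized to DMSO control.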
For the molecule `O=c1cc(CO)n(-c2c(Cl)cccc2Cl)c2c(Cl)cnc(OC(CO)CO)c12` [Example 9, 8-chloro-1-(2,6-dichlorophenyl)-5-((1,3-dihydroxypropan-2-yl)oxy)-2-(hydroxymethyl)-1,6-naphthyridin-4(1H)-one], the half-maximal inhibitory concentration (IC50) was found to be 257 nM. With `O=c1cc(CO)n(-c2c(Cl)cccc2Cl)c2c(Cl)cnc(OC[C@@H](O)CO)c12` [Example 1, (S)-8-Chloro-1-(2,6-dichlorophenyl)-5-(2,3-dihydroxpropoxy)-2-(hydroxymethyl)-1,6-naphthyridin-4(1H)-one] the figure was 104 nM; with `CC1(C)OCC(COc2ncc(Cl)c3c2c(=O)cc(CO)n3-c2c(Cl)cccc2Cl)O1` (centres unmarked) [Example 57, 8-chloro-1-(2,6-dichlorophenyl)-5-((2,2-dimethyl-1,3-dioxolan-4-yl)methoxy)-2-(hydroxymethyl)-1,6-naphthyridin-4(1H)-one], 32 nM; with `Cc1cc(=O)c2c(NOCCO)ncc(Cl)c2n1-c1c(Cl)cc(C#N)cc1Cl` [Example 44, 3,5-dichloro-4-(8-chloro-5-((2-hydroxyethoxy)amino)-2-methyl-4-oxo-1,6-naphthyridin-1(4H)-yl)benzonitrile], 56 nM. With `COCCOCCOCCOCCOCCOCCOc1ncc(Cl)c2c1c(=O)cc(C)n2-c1c(Cl)cccc1Cl` [Example 15, 5-(2,5,8,11,14,17-hexaoxanonadecan-19-yloxy)-8-chloro-1-(2,6-dichlorophenyl)-2-methyl-1,6-naphthyridin-4(1H)-one] the figure was 25 nM; with `Cc1cc(=O)c2c(Nc3nnn(C)n3)ncc(Cl)c2n1-c1c(Cl)cccc1Cl` [Example 47, 8-chloro-1-(2,6-dichlorophenyl)-2-methyl-5-((2-methyl-2H-tetrazol-5-yl)amino)-1,6-naphthyridin-4(1H)-one], 59 nM; with `Cc1cc(=O)c2c(OCC(O)C(C)(C)O)ncc(Cl)c2n1-c1c(Cl)cccc1Cl` (single isomer, unassigned) [Example 58, 8-chloro-1-(2,6-dichlorophenyl)-5-(2,3-dihydroxy-3-methylbutoxy)-2-methyl-1,6-naphthyridin-4(1H)-one], 17 nM.

Molecule `Cc1cc(=O)c2c(CC(O)CO)ncc(Cl)c2n1-c1c(Cl)cccc1Cl` (centres unmarked) [Example 81, 8-Chloro-1-(2,6-dichlorophenyl)-5-(2,3-dihydroxpropyl)-2-methyl-1,6-naphthyridin-4(1H)-one] had an IC50 of 23 nM. The same measure for `Cc1cc(=O)c2c(C(O)CO)ncc(Cl)c2n1-c1c(Cl)cccc1Cl` (centres unmarked) [Example 85, 8-Chloro-1-(2,6-dichlorophenyl)-5-(1,2-dihydroxyethyl)-2-methyl-1,6-naphthyridin-4(1H)-one]: 19 nM.

Take `Cc1cc(=O)c2c(OCC(O)CO)ncc(Cl)c2n1-c1c(Cl)cccc1C#N` (centres unmarked) [Example 34, 3-chloro-2-(8-chloro-5-(2,3-dihydroxypropoxy)-2-methyl-4-oxo-1,6-naphthyridin-1(4H)-yl)benzonitrile]: the IC50 came to 240 nM. This IC50 is about 13-fold higher than that of the molecule before. In turn, `Cc1cc(=O)c2c(OCCNS(C)(=O)=O)ncc(Cl)c2n1-c1c(Cl)cccc1Cl` [Example 36, N-(2-((8-chloro-1-(2,6-dichlorophenyl)-2-methyl-4-oxo-1,4-dihydro-1,6-naphthyridin-5-yl)oxy)ethyl)methanesulfonamide] returned a half-maximal inhibitory concentration (IC50) of 9 nM. With `Cc1cc(=O)c2c(N[C@@H]3COC[C@H]3O)ncc(Cl)c2n1-c1c(Cl)cc(C#N)cc1Cl` [Example 43, 3,5-dichloro-4-(8-chloro-5-(((3R,4S)-4-hydroxytetrahydrofuran-3-yl)amino)-2-methyl-4-oxo-1,6-naphthyridin-1(4H)-yl)benzonitrile] the figure was 26 nM; with `O=c1cc(CO)n(-c2c(Cl)cccc2Cl)c2c(Cl)cnc(C(O)CO)c12` (centres unmarked) [Example 82, 8-Chloro-1-(2,6-dichlorophenyl)-5-(1,2-dihydroxyethyl)-2-(hydroxymethyl)-1,6-naphthyridin-4(1H)-one], 147 nM.

Take `Cc1cc(=O)c2c(OCC3COC3)ncc(Cl)c2n1-c1c(Cl)cccc1Cl` [Example 50, 8-chloro-1-(2,6-dichlorophenyl)-2-methyl-5-(oxetan-3-ylmethoxy)-1,6-naphthyridin-4(1H)-one]: half-maximal inhibition (IC50) was put at 11 nM.
